We go through seven molecules from US9409952B2, “Peptide-compound cyclization method” (Chugai Seiyaku Kabushiki Kaisha, priority 2011, dated 2016).

SMILES strings stand for the structures. Positions of bridges follow the written chain, without caps; N, C: chain ends. Non-standard residues stand in square brackets, D forms with d. Residues, ends and D or L forms follow the SMILES beside them. *: point of attachment. Ala(4-thiazolyl) = N[C@@H](Cc1cscn1)C(=O)O; Met(O2) = CS(=O)(=O)CC[C@H](N)C(=O)O; Lys(Me2) = CN(C)CCCC[C@H](N)C(=O)O; NMeF = CN[C@@H](Cc1ccccc1)C(=O)O; NMeL = CN[C@@H](CC(C)C)C(=O)O; NMeS = CN[C@@H](CO)C(=O)O; NMeA = CN[C@@H](C)C(=O)O; Piperidide = C1CCN(*)CC1; β3hA = C[C@H](N)CC(=O)O; Sar = CNCC(=O)O

Series [1] can be described thus: Metabolic stability in human hepatic microsome. Format: in vitro ADME. Conditions: microsomes, pH 7.4; human hepatic microsome, NADPH(+); read-out: CL NADPH(+).
Series [2] in a line: PAMPA (parallel artificial membrane permeability assay). Type of series: in vitro ADME. Conditions: PAMPA; membrane permeation rate (Pe); 50 mM MOPSO buffer pH 6.5 with 5.0% glycocholic acid, 37° C., 18 hours; read-out: iPAMPA Pe. The essentials:
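Artificial membrane was 10% (w/v) egg lecithin plus 0.5% (w/v) cholesterol in dodecane on a PVDF filter. A 10 mM DMSO stock was added at 0.5% (v/v) to donor buffer (50 mM MOPSO, pH 6.5, 5.0% glycocholic acid). After 18 h at 37 °C, LC/MS or LC/UV gave donor and acceptor levels for Pe.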

Take `CC(C)C[C@H]1C(=O)N(C)[C@@H](Cc2ccccc2)C(=O)N(C)[C@@H](CC(C)C)C(=O)N[C@@H]([C@@H](C)O)C(=O)N[C@H](C(=O)N2CCCCC2)CC(=O)N[C@H](C(C)C)C(=O)N(C)[C@@H](C)C(=O)N(C)[C@@H](CC(C)C)C(=O)N[C@@H](CCS(C)(=O)=O)C(=O)N(C)[C@@H](Cc2ccccc2)C(=O)N[C@@H](Cc2ccccc2)C(=O)N1C` [DP-621] ([dV][NMeA][NMeL][Met(O2)][NMeF]F[NMeL][NMeF][NMeL]TD-Piperidide; lactam N-11): the microsomal CLint at 1 uM in series [1] was 11 µL/min/mg. For the same molecule, in series [2], the Papp at 18 hours, 50 µM was determined as 21 ×10⁻⁶ cm/s.

Consider `CC(C)C[C@@H]1NC(=O)[C@H](CC(C)C)N(C)C(=O)[C@H](C)N(C)C(=O)[C@@H](C(C)C)NC(=O)C[C@@H](C(=O)N2CCCCC2)NC(=O)[C@H](Cc2cscn2)NC(=O)[C@H](C)N(C)C(=O)[C@H](C)N(C)C(=O)[C@H](C)N(C)C(=O)[C@H](Cc2ccccc2)NC(=O)[C@H](Cc2ccccc2)N(C)C1=O` [DP-624] ([dV][NMeA][NMeL]L[NMeF]F[NMeA][NMeA][NMeA][Ala(4-thiazolyl)]D-Piperidide; lactam N-11), for which, in series [1], the microsomal CLint at 1 uM is 30 µL/min/mg. The Papp at 18 hours, 50 µM in series [2] was found to be 24 ×10⁻⁶ cm/s.

For `CC(C)C[C@@H]1NC(=O)[C@H](CC(C)C)N(C)C(=O)[C@H](C)N(C)C(=O)[C@@H](C(C)C)NC(=O)C[C@@H](C(=O)N2CCCCC2)NC(=O)[C@H]([C@@H](C)O)NC(=O)[C@H](Cc2ccccc2)N(C)C(=O)[C@H](C)N(C)C(=O)[C@H](CC(C)C)N(C)C(=O)[C@H](Cc2cscn2)NC(=O)[C@H](Cc2ccccc2)N(C)C1=O` [DP-625] ([dV][NMeA][NMeL]L[NMeF][Ala(4-thiazolyl)][NMeL][NMeA][NMeF]TD-Piperidide; lactam N-11), in series [1], the microsomal CLint at 1 uM was 27 µL/min/mg. Besides, the Papp at 18 hours, 50 µM in series [2] came to 26 ×10⁻⁶ cm/s.

For `CNC(=O)CC[C@@H]1NC(=O)[C@H](CC(C)C)N(C)C(=O)[C@H](C)N(C)C(=O)[C@H](CC(C)C)N(C)C(=O)[C@H](Cc2ccccc2)NC(=O)[C@H](Cc2ccccc2)N(C)C(=O)[C@H](CC(C)C)NC(=O)[C@H](CC(C)C)N(C)C(=O)[C@H](C)N(C)C(=O)[C@@H](C(C)C)NC(=O)C[C@@H](C(=O)N2CCCCC2)NC1=O` [DP-626] ([dV][NMeA][NMeL]L[NMeF]F[NMeL][NMeA][NMeL]E(NHMe)D-Piperidide; lactam N-11), in series [1], the microsomal CLint at 1 uM turned out to be 28 µL/min/mg. The Papp at 18 hours, 50 µM in series [2] stood at 36 ×10⁻⁶ cm/s.

For `CNC(=O)CC[C@@H]1NC(=O)[C@H](CC(C)C)N(C)C(=O)[C@H](C)N(C)C(=O)[C@@H](C(C)C)NC(=O)C[C@@H](C(=O)N2CCCCC2)NC(=O)[C@H]([C@@H](C)O)NC(=O)[C@H](C)N(C)C(=O)CN(C)C(=O)[C@H](CC(C)C)N(C)C(=O)[C@H](Cc2ccccc2)NC(=O)[C@H](Cc2ccccc2)N(C)C1=O` [DP-627] ([dV][NMeA][NMeL]E(NHMe)[NMeF]F[NMeL][Sar][NMeA]TD-Piperidide; lactam N-11), the microsomal CLint at 1 uM in series [1] turned out to be 9 µL/min/mg. The Papp at 18 hours, 50 µM in series [2] was determined as 2.4 ×10⁻⁶ cm/s.

In the case of `CC(C)C[C@H]1C(=O)N(C)[C@@H](CC(C)C)C(=O)N[C@H](C(=O)N(C)[C@@H](Cc2ccccc2)C(=O)N[C@@H](C)C(=O)N2CCCCC2)CC(=O)N[C@H](C(C)C)C(=O)N(C)[C@@H](C)C(=O)N(C)[C@@H](Cc2ccccc2)C(=O)N(C)[C@@H](C)C(=O)N[C@@H](CCCCN(C)C)C(=O)N(C)CC(=O)N[C@@H](C(C)C)C(=O)N1C` [DP-631] ([dV][NMeA][NMeF][NMeA][Lys(Me2)][Sar]V[NMeL][NMeL]D[NMeF]A-Piperidide; lactam N-10), the microsomal CLint at 1 uM in series [1] was determined as 5 µL/min/mg. Further, the Papp at 18 hours, 50 µM in series [2] was 1.6 ×10⁻⁶ cm/s.

In the case of `CC(C)C[C@@H]1NC(=O)[C@H](CO)N(C)C(=O)[C@H](CC(C)C)N(C)C(=O)[C@H](CC(C)C)N(C)C(=O)[C@H](CC(C)C)N(C)C(=O)[C@@H](C)NC(=O)C[C@H](C)NC(=O)[C@H](CC(C)C)N(C)C(=O)[C@H](CC(C)C)NC(=O)[C@H](CC(C)C)N(C)C(=O)CN(C)C1=O` [DP-639] (cyclo(L[NMeL][β3hA][dA][NMeL][NMeL][NMeL][NMeS]L[Sar][NMeL])), the microsomal CLint at 1 uM in series [1] amounted to 134 µL/min/mg. The Papp at 18 hours, 50 µM in series [2] is 33 ×10⁻⁶ cm/s.
